Series [1] relates to isolated hepatocytes. To be noted: Liu et al. (2008); cited from earlier work.
Series [2] has as its system Dextran Sodium Sulphate (DSS) Induced Colitis Model in Mice. The series can be described thus: Acute 10-day DSS induced colitis model, hBD-2-albumin fusion C-terminal (Example 9). Format: in vivo. The conditions noted are these: Pred 1 mg/kg orally daily. Here is the method: “hBD-2-albumin C-terminal” was administered intravenously via the tail vein or subcutaneously with the use of a sterile 25 G needle in a dosing volume of 10 ml/kg body weight. The animals received 1 dose daily for 10 […] days. The active control Prednisolone (Pred) was given orally by gavage at a dose of 1 mg/kg in a dosing volume of 10 ml/kg body weight OD.

Series [3] can be described thus: Pharmacokinetics of hBD-2 after single oral gavage (Example 6). In kind it is in vivo, NMRI mice. To be noted: oral dosing of 4 mg/kg in mice. Here is the method: FIG. 35. Pharmacokinetic data following oral administration of 4 mg/kg hBD-2 to female NMRI mice. […] The results are given as group mean+/−SEM.
21 female NMRI mice were dosed by oral gavage 5 ml/kg using a gavage tube and a 1 ml syringe according to the individual body weight obtained on the day of dosing. Urine was strived sampled at random time points by gently massaging the inguinal area of the abdomen. The first blood sample was taken using a submandibular sampling method. The second blood sample was collected from Isoflurane anaesthetised mice. Intestinal samples were taken after euthanasia. The abdomen of each mouse was opened and three sections of the intestines were sampled.

Series [4] is described as follows: Pharmacokinetics of hBD-2 and hBD-2-albumin fusions after subcutaneous or intravenous administration (Example 7). Format: in vivo, NMRI female mice. The conditions noted are these: hBD-2 1 mg/kg. Here is the method:
FIG. 36. Pharmacokinetic data for hBD-2 following subcutaneous (SC) and intravenous (IV) administration of 1 mg/kg respectively. […] The different curves represent different experiments and detection methods (HPLC and ELISA).
FIG. 37. Pharmacokinetic data for “hBD-2-albumin fusion N-terminal” following subcutaneous and intravenous administration of 16.5 mg/kg respectively. […] The results are the mean of 4 mice/sampling time+/−SD.
FIG. 38. Pharmacokinetic data for “hBD-2-albumin fusion C-terminal” following subcutaneous and intravenous administration of 16.5 mg/kg respectively. […] The results are the mean of 4 mice/sampling time+/−SD.
The animals were dosed 10 ml/kg of stock concentration of 1.65 mg/ml according to the individual body weight (300 μL for a 30 gram mouse). First blood sample was taken using a submandibular sampling method and the second following Isoflurane anaesthesia and euthanasia.

Series [5] deals with C57Bl/6J DIO male mice. Description: GLP-1 analog (liraglutide) treatment of high fat diet fed DIO mice (Example 5). Format: in vivo. To be noted: 0.2 mg/kg BID subcutaneously, 4 weeks. An excerpt:
FIG. 31: Schematic outline of the experimental set up for investigating the effects of a GLP-1 analog (Liraglutid) on mouse gut inflammation and microbiota. At week −40, the C57/BI/6J DIO mice arrived. The mice were fed a high fat diet 60% fat, SSNIFF (Diet #D12492) or purina chow for 38 weeks to achieve an average body weight of 55 gram. From week −2 the mice were single housed. Faecal samples were collected on day −1 and 27 for 16S RNA analysis. Samples from ilium were collected 2 cm from caecum at day 28.
4 weeks old C57Bl/6J DIO male mice were fed a high fat diet (HFD 60% fat, SSNIFF (Diet #D12492)) or purina chow for […]. The HFD fed group had reached an average weight of approximately 55 grams by start of intervention. The mice were group housed 10 per cage until week −2. From week −2 the mice were single housed throughout the study. Feed intake was registered daily just before lights were turned off at 3 pm. Individual mice were subjected to experimental procedures in altered order both group and cage wise. Mice were kept at room temperature under a 12-hour light/dark cycle at SPF standard conditions.
Mice were fed either a high fat diet (HFD) or a low fat (LF) control diet. The HFD contained 2 subgroups; 1 GLP-1 analog and 1 standard HFD without supplementation of GLP-1 analog. The GLP-1 analog liraglutide was dissolved in PBS and 0.1% BSA was added. The GLP-1 analog was administered at 0.2 mg/kg BID subcutaneously.

The conditions of series [6]: degradation by dipeptidyl peptidase-4; cited from earlier work.
The subject of series [7] is Dextran Sodium Sulphate (DSS) Induced Colitis Model in Mice. The series can be described thus: Acute 10-day DSS induced colitis model, hBD-2-albumin fusion N-terminal (Example 8). To be noted: fusion iv or sc daily; DEX 1 mg/kg sc OD. In kind it is in vivo. The procedure:
“hBD-2-albumin N-terminal” was administered intravenously via the tail vein or subcutaneously with the use of a sterile 25 G needle in a dosing volume of 10 ml/kg body weight. The animals received 1 dose daily for 10 executive days.

[8] abbreviates: compared to untreated HFD reference group.

Positions of bridges follow the written chain, without caps; N, C: chain ends. No end group written: not given here.

For the molecule “human neutrophil peptide 2 (CYCRIPACIAGERRYGTCIYQGRLWAFCC; listed as Homo sapiens) [HNP-2, alpha defensin produced by leucocytes]”, in series [1], the glycogenolysis and gluconeogenesis result was “able to inhibit glycogenolysis and gluconeogenesis in isolated hepatocytes”.
Consider human neutrophil peptide 1 [HNP-1], for which the glycogenolysis and gluconeogenesis result in series [1] was “able to inhibit glycogenolysis and gluconeogenesis in isolated hepatocytes”.
Consider `C[C@]12C=CC(=O)C=C1CC[C@@H]1[C@@H]2[C@@H](O)C[C@@]2(C)[C@H]1CC[C@]2(O)C(=O)CO` [Pred, Prednisolone], for which the “histological injury, proximal part of the colon” value in series [2] was “failed to significantly reduce histological injury in the proximal part of the colon”. In series [2] (p<0.01), the “histological injury, distal colon” value was “did reduce the injury in the distal colon”. Moreover, in series [2] (p<0.05), the DAI result was “significant inhibition of the DAI on day 9”.
For “GIGDPVTCLKSGAICHPVFCPRRYKQIGTCGLPGTKCCKKP (disulfide 8-37, 15-30, 20-38) [hBD-2, human beta defensin 2]”, in series [3], the “systemic availability after oral dosing” value is “not systemically available”. This molecule also showed a renal clearance in series [4] of 10 mL/min.
For `CCCCCCCCCCCCCCCC(=O)N[C@@H](CCC(=O)NCCCC[C@H](NC(=O)[C@H](C)NC(=O)[C@H](C)NC(=O)[C@H](CCC(N)=O)NC(=O)CNC(=O)[C@H](CCC(=O)O)NC(=O)[C@H](CC(C)C)NC(=O)[C@H](Cc1ccc(O)cc1)NC(=O)[C@H](CO)NC(=O)[C@H](CO)NC(=O)[C@@H](NC(=O)[C@H](CC(=O)O)NC(=O)[C@H](CO)NC(=O)[C@@H](NC(=O)[C@H](Cc1ccccc1)NC(=O)[C@@H](NC(=O)CNC(=O)[C@H](CCC(=O)O)NC(=O)[C@H](C)NC(=O)[C@@H](N)Cc1cnc[nH]1)[C@@H](C)O)[C@@H](C)O)C(C)C)C(=O)N[C@@H](CCC(=O)O)C(=O)N[C@@H](Cc1ccccc1)C(=O)N[C@H](C(=O)N[C@@H](C)C(=O)N[C@@H](Cc1c[nH]c2ccccc12)C(=O)N[C@@H](CC(C)C)C(=O)N[C@H](C(=O)N[C@@H](CCCNC(=N)N)C(=O)NCC(=O)N[C@@H](CCCNC(=N)N)C(=O)NCC(=O)O)C(C)C)[C@@H](C)CC)C(=O)O` [GLP-1 analog, liraglutide], the “liver weight at termination vs chow fed mice” value in series [5] is reported as “not statistically significantly different”. Moreover, in series [5] (setting [8]), the body weight lost is on record as 25-30% and the “body weight lost (average)” value is listed as 15 gram. For the same molecule, the “plasma cholesterol level vs HFD reference group” value in series [5] (p<0.01) is recorded as “statistically significantly lower”.
Take Glucagon-like peptide-1 [GLP-1]: the “half-life in the circulation” value in series [6] is “less than 2 minutes”.
Regarding `C[C@@H]1C[C@H]2[C@@H]3CCC4=CC(=O)C=C[C@]4(C)[C@@]3(F)[C@@H](O)C[C@]2(C)[C@@]1(O)C(=O)CO` [DEX, Dexamethasone], in series [7], the body weight result is listed as “very significant decrease in body weight from day 5 onwards” and the “histological damage of colonic tissue” value is listed as “failed to significantly reduce histological injury”.
